Experimental data as given in ChEMBL document CHEMBL2073926, “Cloning and functional expression of a mouse liver organic cation transporter” (Hepatology, 1999).

Assays:
[1] = target: T1, Solute carrier family 22 member 1 (Mus musculus, UniProt O08966); experiment: TP_TRANSPORTER: inhibition of TEA uptake (TEA: 140 uM, Procainamide: 10000 uM) in Xenopus laevis oocytes; format: functional, cell-based, Oocyte; set-up: scale not given: the % may be the effect or the level left; conditions: probe TEA (140 uM), read-out: Activity
T1 sequence (O08966 whole entry): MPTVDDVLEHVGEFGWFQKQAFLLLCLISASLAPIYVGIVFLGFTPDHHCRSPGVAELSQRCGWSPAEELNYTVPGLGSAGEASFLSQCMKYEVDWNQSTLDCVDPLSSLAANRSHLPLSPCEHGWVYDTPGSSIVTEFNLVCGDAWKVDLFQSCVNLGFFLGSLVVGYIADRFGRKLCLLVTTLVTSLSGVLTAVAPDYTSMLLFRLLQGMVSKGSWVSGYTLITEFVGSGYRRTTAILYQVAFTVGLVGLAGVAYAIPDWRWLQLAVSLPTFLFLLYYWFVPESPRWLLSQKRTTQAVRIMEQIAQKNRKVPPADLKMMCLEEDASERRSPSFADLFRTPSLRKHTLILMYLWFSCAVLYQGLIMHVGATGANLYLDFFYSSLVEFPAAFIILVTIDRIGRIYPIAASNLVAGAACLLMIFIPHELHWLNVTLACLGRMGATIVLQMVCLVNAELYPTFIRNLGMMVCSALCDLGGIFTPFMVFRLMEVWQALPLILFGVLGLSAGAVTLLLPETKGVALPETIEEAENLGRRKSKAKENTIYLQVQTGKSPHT

[2] = target: T1, Solute carrier family 22 member 1; experiment: in vitro; conditions: xenopus laevis, probe TEA (140 uM)
Description: TP_TRANSPORTER: inhibition of TEA uptake (TEA: 140 uM, Thiamine: 1000 uM) in Xenopus laevis oocytes

[3] = substrate: CC[N+](CC)(CC)CC; experiment: cells, lysate or membranes named

With CCN(CC)CCNC(=O)c1ccc(N)cc1 [PROCAINAMIDE] the activity at 10000 uM [1] was 30.1%.

For Cc1ncc(C[n+]2csc(CCO)c2C)c(N)n1 [THIAMINE ION], the activity at 1000 µM [2] was 12.7%.

B1: Solute carrier family 22 member 1 (Mus musculus) (protein)
chain: MPTVDDVLEHVGEFGWFQKQAFLLLCLISASLAPIYVGIVFLGFTPDHHCRSPGVAELSQRCGWSPAEELNYTVPGLGSAGEASFLSQCMKYEVDWNQSTLDCVDPLSSLAANRSHLPLSPCEHGWVYDTPGSSIVTEFNLVCGDAWKVDLFQSCVNLGFFLGSLVVGYIADRFGRKLCLLVTTLVTSLSGVLTAVAPDYTSMLLFRLLQGMVSKGSWVSGYTLITEFVGSGYRRTTAILYQVAFTVGLVGLAGVAYAIPDWRWLQLAVSLPTFLFLLYYWFVPESPRWLLSQKRTTQAVRIMEQIAQKNRKVPPADLKMMCLEEDASERRSPSFADLFRTPSLRKHTLILMYLWFSCAVLYQGLIMHVGATGANLYLDFFYSSLVEFPAAFIILVTIDRIGRIYPIAASNLVAGAACLLMIFIPHELHWLNVTLACLGRMGATIVLQMVCLVNAELYPTFIRNLGMMVCSALCDLGGIFTPFMVFRLMEVWQALPLILFGVLGLSAGAVTLLLPETKGVALPETIEEAENLGRRKSKAKENTIYLQVQTGKSPHT
B1 showed a Km [3] of 38 µM.
